Results reported in patent publication US9724341B2 (priority 2013, dated 2017).
Where two headings read alike, the source gives them in different places.

Assays:
[1] = for Nicotine Mass Loss: isothermal TGA, API powder
Method: A typical calorimetric scan of nicotine m-salicylate powder is illustrated in FIG. 2. […] Thermogravimetric analysis on the powder was run in both scanning and isothermal modes. […] Isothermal data were also obtained on the API powder (˜10 mg per run) at 40° C., 50° C., and 60° C. for periods of at least 3 days.

[2] = 25° C.; cited from earlier work
[3] = Method: Solubility limit tests were performed on nicotine m-salicylate in a number of relevant solvents. […] The approximate saturation limits are in units of mg nicotine equivalent per mL of solvent. […] However, the analytical methods developed for detecting impurities related to the m-salicylate use 236 nm as the detection wavelength. Methanol has high absorbance in this range and can therefore interfere with the analytes of interest. Acetonitrile, on the other hand, has low background absorbance in this wavelength range and is therefore ideal for use.
[4] = remark: listed apart in the source
Method: The innate volatility of free base nicotine can be greatly altered once bound to a counterion acid. The stability of nicotine in the resulting salt form can vary widely, ultimately impacting its desirability for commercial consideration. Certain packaging configurations can mitigate nicotine loss. […] Decreasing the equilibrium vapor pressure point is believed to minimize the total nicotine loss. For this study, different packaging configurations were tested to investigate the following variables: container material, presence of adjuncts, and total volume of space. Container materials consisted of either glass or multi-laminate foil pouches. Glass is impermeable to vapors. Once the total volume of the glass container is flooded with nicotine vapors and any surface adsorption occurs, equilibrium is reached and no additional loss of nicotine should be observed. Though foil is also impermeable, the inner surface of the pouch is lined with an ethylene acid copolymer that promotes vapor absorbency. The copolymer should lead to greater nicotine loss within a pouch than a glass vial of the same total volume.
The presence of adjuncts, such as a drug cartridge housing, is a likely scenario for the final commercial product. The composition of the adjunct will affect equilibrium vapor pressure point if it preferentially absorbs vapors. For this study, a polycarbonate adjunct with a surface area of ˜150 cm^2 was introduced to the glass vial and pouch scenarios. Finally, the total packaging volume was examined. The smaller the available space, the sooner the equilibrium pressure can be reached. Open containers represent the worst case scenario, as the infinite space means that the equilibrium pressure can never be achieved. To set up the experiment, screening foils were spray coated with a 1×2 cm footprint of nicotine m-salicylate to a thickness of ˜11 ug nicotine/mm^2 (equivalent to a coated dose of 200 ug nicotine equivalent on an EMD foil). After a few random screening foils were assayed for initial time point coated dose, the remaining foils were placed in one of the following containers: • Capped glass vial (˜40 mL volume) • Heat-sealed standard pouch (˜133 mm×87 mm) • Heat-sealed standard pouch, stored with polycarbonate material (˜150 cm^2 surface area) • Uncapped glass vial (same vial as first bullet) • Binder-clipped (semi-sealed) standard pouch (˜133 mm×87 mm) • Capped glass vial, stored with polycarbonate • Heat-sealed half pouch (˜69 mm×87 mm) • Uncovered Petri dish
The packaged screening foils were stored at either 40° C. (oven) or 25° C. (laboratory cabinet), without relative humidity control. At pre-determined time points, three foils from each condition were washed with 5 mL of 50% v/v acetonitrile in water and analyzed on the HPLC for nicotine and m-salicylate content.

[5] = for time coated film relatively stable (not more than 20% nicotine loss): 40 μg/foil; for time coated film stable (nicotine): 170 μg/foil
Method: Loss of nicotine and m-salicylic acid due to volatility and hygroscopic effects: Nicotine salts can suffer volatility issues and can also be quite hygroscopic. For instance, nicotine sulfate absorbs water so readily that it is shipped in aqueous solution. Hygroscopic effects on nicotine m-salicylate were evaluated for 2 doses at two conditions, 22° C./44% RH (ambient condition) and 40° C./75% RH. According to the Antoine equation for water, 40° C./75% RH translates to supersaturated humidity at 22° C. Each coated EMD array was placed flat on a Petri dish (without a cover) which was then stored at either 22° C./44% RH or 40° C./75% RH. At each time point, at least 4 random individual foils were removed from the array and each foil was extracted with 1.5 ml of 50/50 ACN/water for coated dose determination.

[6] = for mechanical integrity of the film: dropped 5 times
Method: Fragility of the spray coating was tested using two foil arrays coated with ˜200 μg of nicotine per foil (˜11 μg nicotine/mm^2, which is about a 21 μm thick film of nicotine m-salicylate). Five foils from each array were assayed for pre-drop coated dose. Each foil array was then placed into a dose cartridge, sealed into a plastic tube, and dropped 3 times onto the floor from a height of about 1 meter. Five additional foils from each array were assayed for the post-drop coated dose.
In a follow-up study, we studied the effect of thickness on the mechanical integrity of the film. In this experiment, three foils from an array were assayed for pre-drop coated dose. Each foil array was then placed into a dose cartridge, sealed into a plastic tube, and dropped 5 times onto the floor from a height of about 1 meter. Three foils from each array were then assayed for the post-drop coated dose.

[7] = sensitive LC method for phenol
Remark: listed apart in the source
[8] = film thickness 29 μm, Post-drop (5 drops, about 1 meter)
[9] = film thickness 37 μm, Post-drop (5 drops, about 1 meter)

CC(C)(C(=O)O)C(=O)O.CC(C)(C(=O)O)C(=O)O.CN1CCCC1c1cccnc1 (stereo not drawn) [Nicotine bidimethylmalonate]
Nicotine Mass Loss ([1]; 40° C.): 4 µg/day | Nicotine Mass Loss ([1]; 50° C.): 14 µg/day | Nicotine Mass Loss ([1]; 60° C.): 53 µg/day

CN1CCCC1c1cccnc1.O=C(O)/C=C/C(=O)O (stereo not drawn) [Nicotine monofumarate]
Nicotine Mass Loss ([1]; 40° C.): 7 µg/day | Nicotine Mass Loss ([1]; 50° C.): 39 µg/day | Nicotine Mass Loss ([1]; 60° C.): 219 µg/day

CN1CCCC1c1cccnc1 (stereo not drawn) [Nicotine]
vapor pressure [2]: 0.0425 mmHg

CN1CCC[C@H]1c1cccnc1.O=C(O)c1ccccc1O [Nicotine o-salicylate, nicotine ortho-salicylate]
Nicotine Mass Loss ([1]; 40° C.): 15 µg/day | Nicotine Mass Loss ([1]; 50° C.): 48 µg/day | Nicotine Mass Loss ([1]; 60° C.): 178 µg/day

CN1CCCC1c1cccnc1.O=C(O)C(O)C(O)C(=O)O (stereo not drawn) [Nicotine bitartrate]
Nicotine Mass Loss ([1]; 40° C.): 1 µg/day | Nicotine Mass Loss ([1]; 50° C.): 3 µg/day | Nicotine Mass Loss ([1]; 60° C.): 10 µg/day

Nicotine bifumarate
Nicotine Mass Loss ([1]; 40° C.): 12 µg/day | Nicotine Mass Loss ([1]; 50° C.): 66 µg/day | Nicotine Mass Loss ([1]; 60° C.): 305 µg/day

CN1CCCC1c1cccnc1.O=C(O)c1cccc(O)c1 (stereo not drawn) [Nicotine m-salicylate, nicotine meta-salicylate]
Nicotine Mass Loss ([1]; 40° C.): 5 µg/day | Nicotine Mass Loss ([1]; 50° C.): 19 µg/day | Nicotine Mass Loss ([1]; 60° C.): 107 µg/day | residual after scanning TGA ([1]; room temperature to 500° C., pan weighed before and after): ~0.2% | nicotine mass loss, times less than nicotine ortho-salicylate ([1]; storage temperatures between 40-60° C.): 2-3 × | Saturation point ([3]; 50/50 acetonitrile/water): 64 mg nicotine/mL | Saturation point ([3]; 80/20 methanol/water): 118 mg nicotine/mL | Saturation point ([3]; Acetonitrile): 9 mg nicotine/mL | Saturation point ([3]; Ethanol): 33 mg nicotine/mL | Saturation point ([3]; Methanol): 103 mg nicotine/mL | Saturation point ([3]; Water): 58 mg nicotine/mL | Saturation point ([3]; acetone): <<10 mg nicotine/mL | solubility ([3]; acetone): < 10 mg/mL | solubility ([3]; pure acetonitrile): ~10 mg/mL | loss of nicotine content ([4]; 25° C., Petri dish, 18 weeks): 13% | m-salicylic acid content ([4]; 25° C., all eight conditions): stable | Nicotine loss ([4]; 25° C., up to 18 weeks, all conditions except Petri dish): ≤ 7 % of initial | m-salicylate content ([4]; 40° C., all other configurations, 16 weeks): 100-110 % of initial | loss of nicotine content ([4]; 40° C., all other stabilized (sealed) conditions): ≤ 10% | loss of nicotine content ([4]; 40° C., sealed standard sized pouches containing polycarbonate material): ~20% | m-salicylate content ([4]; Petri dish, four weeks at 40° C.): ~80 % of initial | time coated film relatively stable (not more than 20% nicotine loss) ([5]; 22° C./60% RH): up to 4 weeks | time coated film relatively stable (not more than 20% nicotine loss) ([5]; 35° C./80% RH): ≤ 5 days | time coated film relatively stable (not more than 20% nicotine loss) ([5]; 60° C./35% RH): up to 4 hours | time coated film stable (nicotine) ([5]; 22° C./60% RH): ≥ 4 weeks | time coated film stable (nicotine) ([5]; 25° C./90% RH): ≥ 13 days | time coated film stable (nicotine) ([5]; 35° C./80% RH): ≥ 7 days | time coated film stable (nicotine) ([5]; 60° C./35% RH): at least 8 hours | M-salicylic acid stability of coated films ([5]; all conditions except the 40 μg/foil dose at 25° C./90% RH): relatively stable | mechanical integrity of the film ([6]; 350 μg nicotine (~37 μm thick)): begin to show signs of fragility | M-salicylate coated dose (average ± 1 standard deviation) [6, 8]: 244 ± 3 | Nicotine coated dose (average ± 1 standard deviation) [6, 8]: 277 ± 3 | M-salicylate coated dose (average ± 1 standard deviation) ([6]; film thickness 29 μm, Pre-drop): 247 ± 1 | Nicotine coated dose (average ± 1 standard deviation) ([6]; film thickness 29 μm, Pre-drop): 275 ± 3 | M-salicylate coated dose (average ± 1 standard deviation) [6, 9]: 299 ± 7 | Nicotine coated dose (average ± 1 standard deviation) [6, 9]: 335 ± 6 | M-salicylate coated dose (average ± 1 standard deviation) ([6]; film thickness 37 μm, Pre-drop): 311 ± 0 | Nicotine coated dose (average ± 1 standard deviation) ([6]; film thickness 37 μm, Pre-drop): 347 ± 6 | coated dose post-drop vs pre-drop, average of two arrays ([6]; ~200 μg nicotine per foil, dropped 3 times): ~0.8% | mechanical integrity of the film ([6]; ~29 μm thickness): not lost | maximum content of phenol in aerosols (estimated from method sensitivity; phenol not observed) [7]: ≤ 0.013% | MMAD (NGI cups coated with 1% (w/v) benzoic acid): 0.9 um | MMAD (bare NGI cups, 30 LPM, average): 0.7 μm | Particle size (overall conclusion): about 1 μm
